The record followed here is ChEMBL document CHEMBL1201862, “PubChem BioAssay data set” (2004).

The structures appear in SMILES notation.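 Grown in 96-well plates, cells were treated for 48 hours with each compound at five concentrations. Insufficient inhibition: endpoint recorded as highest concentration tested. The concentration for 50% growth inhibition is given as GI50.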 Calls of active or inactive are those of the source. Rule as the data show it: active = GI50 up to about 1.1 µM and inactive = higher.

What all share (assay): DTP human tumour cell line panel, 48 h
In assay [1] the test system is KM12.
Assay [2] concerns IGROV-1.
In assay [3] the test system is NCI-H23.
Assay [4] concerns LOX IMVI.
Assay [5] deals with SF-295.
Assay [6] relates to OVCAR-4.
Assay [7] deals with U-251.
Assay [8] relates to K562.
The subject of assay [9] is SW-620.
In assay [10] the test system is M14.
Assay [11] deals with HCT-15.
The subject of assay [12] is HOP-62.
In assay [13] the test system is UACC-257.
Assay [14] deals with SF-539.
The test system of assay [15] is RXF 393.
For assay [16], the system named is 786-0.
For assay [17], the system named is MCF7.
Assay [18] concerns CCRF-CEM.
Assay [19] concerns HL-60.

As to `CC(=O)OCC(OC(C)=O)C(OC(C)=O)C(OC(C)=O)C(C=NN(C(C)=O)S(=O)(=O)c1ccc(/C=C2\NC(=O)N(C)C2=O)cc1)OC(C)=O` (configuration not stated), the GI50 in assay [1] was > 100 µM (inactive); in assay [2] it was 18.8 µM (inactive); in assay [3], 36.1 µM (inactive); in assay [4] it was 11.9 µM (inactive); in assay [5], 42.8 µM (inactive); in assay [6], 27 µM (inactive). The GI50 in assay [7] was 22.6 µM (inactive); in assay [8], 36.3 µM (inactive); in assay [9], 26.4 µM (inactive); in assay [10] it was 42.7 µM (inactive); in assay [11], 21.3 µM; in assay [12], 26.3 µM (inactive). Also, the GI50 in assay [13] is 44.8 µM (inactive); in assay [14] it was 26.7 µM (inactive); in assay [15], 13.4 µM (inactive); in [16], 23.7 µM (inactive); in assay [17], 30.2 µM (inactive).

As for `NC(=O)C(=CNC(=S)Nc1ccc(S(=O)(=O)Nc2ccccn2)cc1)C(N)=O`, the GI50 in [1] was > 100 µM (inactive); in assay [2], > 100 µM (inactive); in assay [3] it was > 100 µM (inactive); in assay [4], > 93.1 µM (inactive); in assay [5], > 100 µM (inactive); in assay [6], > 100 µM (inactive). Further, the GI50 in assay [7] was > 100 µM (inactive); in assay [8] it was 40.6 µM (inactive); in assay [9], 39.3 µM (inactive); in [10] it was > 100 µM (inactive); in [11], > 78 µM; in assay [12], > 100 µM (inactive). Besides, the GI50 in [13] was > 100 µM (inactive); in assay [18], 30 µM (inactive); in assay [14] it was > 100 µM (inactive); in assay [15] it was > 100 µM (inactive); in assay [16], > 100 µM (inactive); in assay [17] it was > 83.2 µM (inactive).

Consider `O=C1c2ccccc2-c2nc(-c3ccncc3)cc3c2c1nc1ccccc13`, for which the GI50 was 11 µM (inactive) in [19]; 11.8 µM (inactive) in assay [1]; 1.07 µM (active) in [2]; 15.3 µM (inactive) in assay [3]; 14.5 µM (inactive) in [4]; 11.3 µM (inactive) in [5]. Further, the GI50 in assay [6] is 27.3 µM (inactive); in [7], 14.9 µM (inactive); in [8], 16.1 µM (inactive); in assay [9], 24.3 µM (inactive); in [10] it was 3.21 µM (inactive); in assay [11], 19 µM. The GI50 in assay [12] is 6.55 µM (inactive); in [13], 19.1 µM (inactive); in assay [18], 9.33 µM (inactive); in [14] it was 22 µM (inactive); in [16], 11.1 µM (inactive); in assay [17], 16.5 µM (inactive).

Turning to `Cn1cc(S(=O)(=O)NC(=O)Nc2ccc(Cl)cc2)c(=O)c2ccc(Cl)cc21`, the GI50 is 69.7 µM (inactive) in assay [1]; > 100 µM (inactive) in assay [2]; 70 µM (inactive) in [3]; > 100 µM (inactive) in assay [4]; > 100 µM (inactive) in [5]; > 100 µM (inactive) in assay [6]. Further, the GI50 was 93.1 µM (inactive) in assay [7]; 47.1 µM (inactive) in [8]; > 100 µM (inactive) in assay [9]; > 100 µM (inactive) in assay [10]; 25.7 µM in [11]; > 100 µM (inactive) in assay [12]. For the same compound, the GI50 in [13] is > 100 µM (inactive); in [18], 92.9 µM (inactive); in assay [14] it was > 100 µM (inactive); in assay [15], > 100 µM (inactive); in assay [16], > 100 µM (inactive); in assay [17], > 100 µM (inactive).

In the case of `CCCCCCCCCCCCCCCCCCNc1nc(=O)n(C2CC(O)C(COP(=O)(O)O)O2)cc1F` (configuration not stated), the GI50 in assay [1] is > 72.8 µM (inactive); in assay [2], > 74.8 µM (inactive); in assay [3] it was 58.1 µM (inactive); in assay [4] it was 58.9 µM (inactive); in assay [5] it was > 80.7 µM (inactive); in [6], > 100 µM (inactive). Further, the GI50 was > 100 µM (inactive) in assay [7]; > 100 µM (inactive) in [8]; > 100 µM (inactive) in [9]; > 100 µM (inactive) in assay [10]; > 100 µM in assay [11]; 81.7 µM (inactive) in assay [12]. The GI50 is > 100 µM (inactive) in assay [13]; 38 µM (inactive) in [18]; 15 µM (inactive) in assay [14]; > 80 µM (inactive) in assay [15]; 45.2 µM (inactive) in [16]; 16.9 µM (inactive) in assay [17].

Take `CC1(C=O)CCC23COC4(CCC5C6(C)CCC(OC7OCC(OC8OC(CO)C(O)C(OC9OC(CO)C(O)C(O)C9O)C8OC8OCC(O)C(O)C8O)C(O)C7OC7OC(CO)C(O)C(O)C7O)C(C)(C)C6CCC5(C)C4(C)CC2O)C3C1` (configuration not stated): the GI50 in assay [19] was 0.356 µM (active); in assay [1] it was 0.0474 µM (active); in [2], 1.42 µM (inactive); in assay [3], 1.76 µM (inactive); in [4], 1.24 µM (inactive); in [5], 0.908 µM (active). The GI50 in [6] is 1.16 µM (inactive); in [7] it was 2.34 µM (inactive); in assay [8], 3.1 µM (inactive); in assay [9] it was 0.628 µM (active); in assay [10], 1.52 µM (inactive); in assay [11], 1.53 µM. Moreover, the GI50 was 2.13 µM (inactive) in [12]; 1.75 µM (inactive) in [13]; 0.221 µM (active) in assay [18]; 1.3 µM (inactive) in [14]; 1.2 µM (inactive) in [16]; 0.822 µM (active) in assay [17].

As to `Cc1ccc(/C=C2\NC(=S)NC2=O)cc1`, the GI50 was > 100 µM (inactive) in assay [1]; > 100 µM (inactive) in assay [2]; > 100 µM (inactive) in assay [3]; 40.3 µM (inactive) in assay [4]; > 100 µM (inactive) in [5]; 62.8 µM (inactive) in assay [6]. Also, the GI50 in assay [7] is > 100 µM (inactive); in assay [8], > 100 µM (inactive); in assay [9], > 100 µM (inactive); in assay [10], > 100 µM (inactive); in assay [11], > 100 µM; in assay [12], > 100 µM (inactive). Moreover, the GI50 in assay [18], in [14], in [15], in [16] and in [17] was > 100 µM (inactive) in each case.

On to `CCSc1n/c(=C\c2ccco2)c2nnnn12`, for which the GI50 in [1], in assay [2], in [3], in assay [4], in [5] and in assay [6] was > 100 µM (inactive) in each case. Further, the GI50 is > 100 µM (inactive) in [7]; > 100 µM (inactive) in assay [9]; > 100 µM (inactive) in assay [10]; > 100 µM in [11]; > 100 µM (inactive) in assay [12]; > 100 µM (inactive) in [13]. Besides, the GI50 in assay [18], in [14], in assay [15], in assay [16] and in assay [17] was > 100 µM (inactive) each time.

For `O=c1n(Cc2ccccc2)c(=O)n2c(=O)n(Cc3ccccc3)c(=O)n12`, the GI50 in assay [19], in [1], in assay [3], in [4], in [5] and in assay [6] was > 100 µM (inactive) throughout. Besides, the GI50 is > 100 µM (inactive) in [7]; > 100 µM (inactive) in assay [8]; > 100 µM (inactive) in [9]; > 100 µM in [11]; > 100 µM (inactive) in assay [13]; > 100 µM (inactive) in [18]. For the same compound, the results for the GI50 in assay [14], in assay [16] and in assay [17] were 39.8 µM (inactive), > 100 µM (inactive) and > 100 µM (inactive), respectively.

As for `O=C(Nc1ccn(C2CC(O)C(CO)O2)c(=O)n1)c1ccccc1` (configuration not stated), the GI50 in [19], in assay [1], in assay [2], in assay [3], in [4] and in assay [5] was > 100 µM (inactive) throughout. In addition, the GI50 in [6] is > 100 µM (inactive); in [7], > 100 µM (inactive); in assay [8] it was > 100 µM (inactive); in [9], > 100 µM (inactive); in [10], > 100 µM (inactive); in [11], > 100 µM. Besides, the GI50 in assay [12], in assay [13], in assay [18], in assay [14], in [16] and in [17] was > 100 µM (inactive) throughout.

As for `C/C(=N\NC(=S)N1CCCCC1)c1nc2cccnc2[nH]1`, the GI50 in [19] was 3.35 µM (inactive); in assay [1] it was 9.02 µM (inactive); in [2] it was 21 µM (inactive); in [3], 13.6 µM (inactive); in assay [4], 7.83 µM (inactive); in assay [5], 8.51 µM (inactive). Further, the GI50 is 4.24 µM (inactive) in [6]; 9.46 µM (inactive) in assay [7]; 6.9 µM (inactive) in assay [8]; 6.38 µM (inactive) in assay [9]; 7.46 µM (inactive) in assay [10]; 5.81 µM in assay [11]. Also, the GI50 in assay [12] was 9.62 µM (inactive); in assay [13] it was 8 µM (inactive); in [18], 2.79 µM (inactive); in assay [14] it was 6.14 µM (inactive); in assay [16], 18 µM (inactive); in assay [17], 3.67 µM (inactive).
